According to PubChem BioAssay (NCI):
Several values for one entry are separate records, joined by “and”; a condition that tells them apart may be missing. Identical values can stand only once.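 Assay format: 96-well plates, 48-hour exposure. The concentration for 50% growth inhibition is given as GI50. At the TGI there is no net growth.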

Legend:
Experiment in all cases: NCI anticancer screen, dose series, 48 h
786-0 renal = test system: 786-0 renal
A549 NSCLC = test system: A549 NSCLC
EKVX NSCLC = test system: EKVX NSCLC
HOP-92 NSCLC = test system: HOP-92 NSCLC
MALME-3M melanoma = test system: MALME-3M melanoma
NCI-H460 lung = test system: NCI-H460 lung
SK-OV-3 ovarian = test system: SK-OV-3 ovarian
UACC-257 melanoma = test system: UACC-257 melanoma
UO-31 renal = test system: UO-31 renal

Work on `O=C(O)CCNS(=O)(=O)c1ccc2ccccc2c1` yielded a TGI (786-0 renal) of over 100 µM, a TGI (A549 NSCLC) of over 100 µM and a TGI (EKVX NSCLC) of over 100 µM. The TGI (HOP-92 NSCLC) was over 100 µM, the TGI (MALME-3M melanoma) was over 100 µM and the TGI (NCI-H460 lung) was over 100 µM. For the same molecule, the TGI (SK-OV-3 ovarian) was over 100 µM, the TGI (UACC-257 melanoma) was over 100 µM and the TGI (UO-31 renal) was over 100 µM.
With `Cc1ccc(NC(=O)C(=O)CC(=O)c2c(C)n([O-])c3ccccc3[n+]2=O)cc1C` the TGI (786-0 renal) was over 100 µM, the TGI (A549 NSCLC) was over 100 µM and the TGI (EKVX NSCLC) was over 100 µM. The TGI (HOP-92 NSCLC) was over 100 µM, the TGI (MALME-3M melanoma) was over 100 µM and the TGI (NCI-H460 lung) was over 100 µM. It also gave a TGI (SK-OV-3 ovarian) of over 100 µM, a TGI (UACC-257 melanoma) of over 100 µM and a TGI (UO-31 renal) of over 100 µM.
Molecule `O=C(C(=O)n1ncc(Cl)c(Cl)c1=O)n1ncc(Cl)c(Cl)c1=O` has a TGI (786-0 renal) of 44.6 µM, a TGI (A549 NSCLC) of over 100 µM and a TGI (EKVX NSCLC) of over 83.8 µM. For the same molecule, the TGI (HOP-92 NSCLC) was 49.9 µM, the TGI (MALME-3M melanoma) was 48.1 µM and the TGI (NCI-H460 lung) was over 100 µM. It also gave a TGI (SK-OV-3 ovarian) of over 100 µM, a TGI (UACC-257 melanoma) of 35.7 µM and a TGI (UO-31 renal) of over 100 µM.
In the case of `Cc1ccc(N=C[N-]c2ccc(C)cc2)cc1.Cc1ccc(N=C[N-]c2ccc(C)cc2)cc1.O=C([O-])C(F)(F)F.O=C([O-])C(F)(F)F.[OH3+].[OH3+].[Rh+2].[Rh+2]`, the GI50 (786-0 renal) is reported as 23.5 µM, the TGI (786-0 renal) is reported as 58.5 µM and the GI50 (A549 NSCLC) is reported as over 100 µM. For the same molecule, the TGI (A549 NSCLC) was over 100 µM, the GI50 (EKVX NSCLC) was 50.2 µM and the TGI (EKVX NSCLC) was over 100 µM. For the same molecule, the GI50 (MALME-3M melanoma) was 28 µM, the TGI (MALME-3M melanoma) was 56.1 µM and the GI50 (NCI-H460 lung) was over 100 µM. For the same molecule, the TGI (NCI-H460 lung) was over 100 µM, the GI50 (SK-OV-3 ovarian) was over 100 µM and the TGI (SK-OV-3 ovarian) was over 100 µM. The GI50 (UACC-257 melanoma) was 64.7 µM, the TGI (UACC-257 melanoma) was over 100 µM and the GI50 (UO-31 renal) was over 100 µM. For the same molecule, the TGI (UO-31 renal) was over 100 µM.
In the case of `Cc1cc(-c2c(F)cc3c4nn([C@H]5CC[C@@H](N(C)C)CC5)c(=O)c-4cn(C4CC4)c3c2F)cc(C)n1`, the GI50 (786-0 renal) is reported as 0.0202 µM, the TGI (786-0 renal) is reported as 0.0526 µM and 0.363 µM and the TGI (EKVX NSCLC) is reported as 5.96 µM. The GI50 (HOP-92 NSCLC) was 0.244 µM, the GI50 (MALME-3M melanoma) was 0.0318 µM and the TGI (MALME-3M melanoma) was 0.208 µM and 1.67 µM. The TGI (NCI-H460 lung) was 0.273 µM, the GI50 (SK-OV-3 ovarian) was 0.0546 µM and the TGI (SK-OV-3 ovarian) was 0.141 µM and 0.708 µM. For the same molecule, the TGI (UACC-257 melanoma) was 5.77 µM, the GI50 (UO-31 renal) was 0.275 µM and the TGI (UO-31 renal) was 0.566 µM and 3.29 µM.
In the case of `COc1ccc2nc(C(=O)c3ccccc3)c(C)cc2c1`, the TGI (786-0 renal) is reported as 38.1 µM, the TGI (A549 NSCLC) is reported as over 70 µM and the TGI (EKVX NSCLC) is reported as over 100 µM. It also gave a TGI (HOP-92 NSCLC) of 67.1 µM, a TGI (MALME-3M melanoma) of over 39.1 µM and a TGI (NCI-H460 lung) of over 100 µM. It also gave a TGI (SK-OV-3 ovarian) of 15.8 µM, a TGI (UACC-257 melanoma) of 26.4 µM and a TGI (UO-31 renal) of over 57.7 µM.
For `Cc1ccc2nc(NC(=O)C(=O)C(C#N)c3ccc(Cl)cc3)sc2c1` (centres undefined), the TGI (786-0 renal) was over 50 µM, the TGI (A549 NSCLC) was over 50 µM and the TGI (EKVX NSCLC) was over 50 µM. It also gave a TGI (HOP-92 NSCLC) of over 50 µM, a TGI (MALME-3M melanoma) of over 50 µM and a TGI (NCI-H460 lung) of over 50 µM. The TGI (SK-OV-3 ovarian) was over 50 µM, the TGI (UACC-257 melanoma) was over 50 µM and the TGI (UO-31 renal) was over 50 µM.
With `COc1ccc2oc3c(OC)c(OC)c(OC)cc3c(=O)c2c1` the TGI (786-0 renal) was over 100 µM, the TGI (A549 NSCLC) was over 100 µM and the TGI (EKVX NSCLC) was over 100 µM. It also gave a TGI (MALME-3M melanoma) of over 100 µM, a TGI (NCI-H460 lung) of over 100 µM and a TGI (SK-OV-3 ovarian) of over 100 µM. It also gave a TGI (UACC-257 melanoma) of over 100 µM and a TGI (UO-31 renal) of over 100 µM.
Work on `C/C(CN1C(=O)c2ccccc2C1=O)=N\NS(=O)(=O)c1cccc(C(=O)O)c1` yielded a TGI (786-0 renal) of over 100 µM, a TGI (A549 NSCLC) of over 100 µM and a TGI (EKVX NSCLC) of over 100 µM. The TGI (MALME-3M melanoma) was over 100 µM, the TGI (NCI-H460 lung) was over 100 µM and the TGI (SK-OV-3 ovarian) was over 100 µM. For the same molecule, the TGI (UACC-257 melanoma) was over 100 µM and the TGI (UO-31 renal) was over 100 µM.
`C1CCCCc2nc3c(nc2CCC1)c1nc2c(nc1c1nc4c(nc31)CCCCCCCC4)CCCCCCCC2` showed a TGI (786-0 renal) of over 100 µM, a TGI (A549 NSCLC) of over 100 µM and a TGI (HOP-92 NSCLC) of over 100 µM. The TGI (MALME-3M melanoma) was over 100 µM, the TGI (NCI-H460 lung) was over 100 µM and the TGI (SK-OV-3 ovarian) was over 100 µM. It also gave a TGI (UACC-257 melanoma) of over 100 µM and a TGI (UO-31 renal) of over 100 µM.
Molecule `CC1=C(C(=O)Nc2ccccc2)C(c2ccccc2Cl)C(C(=O)Nc2ccccc2)=C(C)N1` has a TGI (786-0 renal) of 42.1 µM, a TGI (A549 NSCLC) of over 100 µM and a TGI (EKVX NSCLC) of 37.7 µM. It also gave a TGI (HOP-92 NSCLC) of 45.2 µM, a TGI (MALME-3M melanoma) of 39.7 µM and a TGI (SK-OV-3 ovarian) of 80 µM. The TGI (UACC-257 melanoma) was 38.5 µM and the TGI (UO-31 renal) was 84.4 µM.
`COc1ccc(C2=Nc3ccccc3SC(C)C2)cc1OC` (centres undefined) was tested, and the TGI (786-0 renal) was 30.2 µM, the TGI (EKVX NSCLC) was 56.5 µM and the TGI (HOP-92 NSCLC) was over 100 µM. For the same molecule, the TGI (MALME-3M melanoma) was 42.8 µM, the TGI (NCI-H460 lung) was 36.3 µM and the TGI (SK-OV-3 ovarian) was 39.5 µM. For the same molecule, the TGI (UACC-257 melanoma) was 49.6 µM and the TGI (UO-31 renal) was 32.4 µM.
`Cc1cccc(C(=O)O)c1C(=O)c1cccc2ccccc12` showed a TGI (786-0 renal) of over 100 µM, a TGI (A549 NSCLC) of over 100 µM and a TGI (EKVX NSCLC) of over 100 µM. The TGI (MALME-3M melanoma) was over 100 µM, the TGI (NCI-H460 lung) was over 100 µM and the TGI (SK-OV-3 ovarian) was over 100 µM. It also gave a TGI (UACC-257 melanoma) of over 100 µM and a TGI (UO-31 renal) of over 100 µM.
`Clc1ccc(-c2c3ccc(=[N+]4CCCCC4)cc-3oc3cc(N4CCCCC4)ccc23)cc1` showed a GI50 (786-0 renal) of 0.103 µM, a TGI (786-0 renal) of 0.226 µM and a GI50 (SK-OV-3 ovarian) of 0.204 µM. For the same molecule, the TGI (SK-OV-3 ovarian) was 0.715 µM, the GI50 (UACC-257 melanoma) was 0.13 µM and the TGI (UACC-257 melanoma) was 0.304 µM.
For `CCOC(=O)c1cc(-c2ccc(-c3cc(C(=O)OCC)c(C#N)c(N)c3C#N)cc2)c(C#N)c(N)c1C#N`, the TGI (786-0 renal) was over 100 µM, the TGI (A549 NSCLC) was over 100 µM and the TGI (EKVX NSCLC) was over 100 µM. For the same molecule, the TGI (MALME-3M melanoma) was over 100 µM, the TGI (NCI-H460 lung) was over 100 µM and the TGI (SK-OV-3 ovarian) was over 100 µM. For the same molecule, the TGI (UACC-257 melanoma) was over 100 µM and the TGI (UO-31 renal) was over 100 µM.
`CCN(CC)CC1CCCCN1CC(=O)N1CC(C)C(=O)Nc2ccccc21` (centres undefined) showed a TGI (786-0 renal) of over 100 µM, a TGI (A549 NSCLC) of over 100 µM and a TGI (HOP-92 NSCLC) of over 100 µM. For the same molecule, the TGI (MALME-3M melanoma) was over 100 µM, the TGI (NCI-H460 lung) was over 100 µM and the TGI (SK-OV-3 ovarian) was over 100 µM. The TGI (UACC-257 melanoma) was over 100 µM and the TGI (UO-31 renal) was over 100 µM.
`CCC(C)CC(C)CC(C)/C=C(\C)C1=C(C)CC(C)(O)O1` (centres undefined) gave a TGI (786-0 renal) of over 100 µM, a TGI (A549 NSCLC) of over 100 µM and a TGI (EKVX NSCLC) of over 100 µM. It also gave a TGI (HOP-92 NSCLC) of 79.7 µM, a TGI (NCI-H460 lung) of over 100 µM and a TGI (SK-OV-3 ovarian) of over 100 µM. It also gave a TGI (UACC-257 melanoma) of over 100 µM and a TGI (UO-31 renal) of over 100 µM.
`CC(C)c1cc(C(C)C)c(S(=O)(=O)N=[N+]=[N-])c(C(C)C)c1` showed a TGI (786-0 renal) of over 100 µM, a TGI (A549 NSCLC) of over 100 µM and a TGI (HOP-92 NSCLC) of over 100 µM. The TGI (MALME-3M melanoma) was over 100 µM, the TGI (NCI-H460 lung) was over 100 µM and the TGI (SK-OV-3 ovarian) was over 100 µM. The TGI (UACC-257 melanoma) was over 100 µM and the TGI (UO-31 renal) was over 100 µM.
